One experiment addresses T1, CXCR2 (Homo sapiens, UniProt P25025).
T1 construct: host or cells: CHO cells
T1 sequence (P25025 1-360): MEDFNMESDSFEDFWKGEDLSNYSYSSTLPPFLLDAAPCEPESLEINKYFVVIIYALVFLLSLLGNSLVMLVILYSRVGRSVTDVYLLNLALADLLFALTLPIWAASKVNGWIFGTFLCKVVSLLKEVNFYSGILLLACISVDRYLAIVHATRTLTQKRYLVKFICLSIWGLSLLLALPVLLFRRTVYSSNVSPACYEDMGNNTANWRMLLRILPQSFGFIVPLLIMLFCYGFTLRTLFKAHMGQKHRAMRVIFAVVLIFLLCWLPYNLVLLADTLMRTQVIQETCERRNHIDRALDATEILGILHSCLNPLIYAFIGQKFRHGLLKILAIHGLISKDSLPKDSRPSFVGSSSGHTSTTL
Description: CXCR2 radioligand binding assay with 125I labeled IL-8 (Panlabs). As to conditions: for inhibition at 20 µM: letter following "II", read-out: Biological Activity II (CXCR2): extent of inhibition; for pIC50: read-out: IC50 (after II, CXCR2). The text has this:
This assay is a radioligand binding assay in human recombinant CHO cells with ^125I labeled IL-8 as ligand as described in The Journal of Biological Chemistry (Ahuja, S. K.; Murphy, P. M;. J. Biol. Chem. 1996, 271, 20545).

A further experiment deals with A549 cells. Description: Inhibition of TNF-α-induced apoptosis in A549 cells (crystal violet). It counts as cell-based. To be noted: letter following "III"; inhibition at 20 μM. The protocol:
The protocol used for determining inhibition of apoptosis in A549 cells was adopted from a system previously described (K. Last-Barney et al, J. of Immunology, 1988, 141, 527-530). Briefly, 10^5 cells in 200 μL 10% FBS/RPMI antibiotic containing culture medium were plated into 96 well round bottom culture plates and allowed to adhere for 6 hours at 37° C. in a 5% CO2 atmosphere. The media was removed and 100 μL of RPMI+1 μg/mL actinomycin-D was added to each well, followed by 100 μL of 20 μM solution of compound in 1% DMSO. This was incubated for 1 hour. […] The media was aspirated from the plates and 100 μL of 0.5% crystal violet in 20% methanol was added. After 10 minutes the plates were rinsed with water to remove excess stain, air dried, and read on a Spectramax spectrophotometer at a wavelength of 590 nm.

pIC50: −log10 of the molar value. Where two headings read alike, the source gives them in different places.

In general, inhibition refers to the change of the read-out against control, counted positive when it falls. As usually defined, the pIC50 is −log10 of the IC50, conventionally taken in molar units. With `COc1cc(OC)c(CNC(=O)Cc2ccc(CN3C(=O)[C@@H]4C[C@H](NC(=O)OCC5c6ccccc6-c6ccccc65)CN4C(=O)[C@@H]3CC(=O)O)cc2)c(OC)c1`, the inhibition at 20 µM at CXCR2 was greater than 50%. The pIC50 at CXCR2 (unit μm [sic]) was 4.82.

As to `COC(=O)C[C@H]1C(=O)N2C[C@@H](NC(=O)c3cnc4ccccc4c3)C[C@H]2C(=O)N1Cc1ccc(CC(=O)NCc2c(OC)cc(OC)cc2OC)cc1`, in the experiment with A549 cells, the “Biological Activity III (apoptosis): extent of inhibition” value is given as “A (A refers to >50% inhibition at 20 μM)”. Further, on CXCR2, the inhibition at 20 µM was greater than 50% and the pIC50 is 4.60.

The values are drawn from patent US6815214B2, “Pharmaceutical uses and synthesis of diketopiperazines” (Celltech R & D, Inc., priority 2000, dated 2004).
